Measurements from patent US20210038577A1, “THIOREDOXIN REDUCTASE INHIBITORS FOR USE IN THE TREATMENT OF CANCER” (Cinda Pharma AB, priority 2018, published 2021).

How the values were obtained:
[1] = tested on: NB-4 (a leukaemia cell line); assay: MTT cell viability assay, NB-4; format: cell-based; settings: 72 hrs
Protocol: (§1) MDA-MB-453 (ATCC HTB-131) cells were grown in media with sodium pyruvate. MDA-MB-231 cells (ATCC HTB-26) were grown in DMEM media or L-15 supplemented with Glutamax (1×). U87-MG (ATCC HTB-14) and MDA-MB-468 (ATCC HTB-132) cells were cultured in DMEM supplemented with Glutamax (1×). NB-4 (DSMZ ACC-207) cells were cultured in RPMI 1640.
(§2) Breast cancer and glioblastoma cell lines were plated 4000 cells/well in 96-well plates in the presence of 10% FBS media. The following day cells were treated with various concentrations of the example compounds (0.1% DMSO final) and incubated for 72 hrs. After the incubation an MTT assay was performed to access cell viability. Percent of viability was determined using DMSO vehicle and no cell (blank) controls.

GR from baker's yeast = target: T1, GR from baker's yeast (Saccharomyces cerevisiae, UniProt P41921); assay: Glutathione reductase (GR) activity assay; format: biochemical; settings: Molar concentration
T1 sequence (P41921 17-483 limits assumed): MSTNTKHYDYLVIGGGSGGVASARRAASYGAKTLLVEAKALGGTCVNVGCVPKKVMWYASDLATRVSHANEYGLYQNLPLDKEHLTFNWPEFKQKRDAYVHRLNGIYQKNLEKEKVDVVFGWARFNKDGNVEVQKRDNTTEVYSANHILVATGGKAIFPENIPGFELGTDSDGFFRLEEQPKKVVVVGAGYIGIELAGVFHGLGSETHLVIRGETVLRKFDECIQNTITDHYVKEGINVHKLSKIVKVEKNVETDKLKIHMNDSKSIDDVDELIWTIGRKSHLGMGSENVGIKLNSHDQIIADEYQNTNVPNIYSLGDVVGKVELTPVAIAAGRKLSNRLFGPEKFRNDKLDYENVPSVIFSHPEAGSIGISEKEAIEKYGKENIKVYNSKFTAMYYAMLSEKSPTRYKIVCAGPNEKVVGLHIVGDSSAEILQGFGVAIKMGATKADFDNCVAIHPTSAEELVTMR
Protocol: GR activity was determined incubating compounds at various concentrations with GR from baker's yeast and 250 μM NADPH for 15 minutes, whereupon 10 mM oxidized glutathione (GSSG) was added to each well and NADPH consumption was followed at OD340. Activity was determined following the consumption of NADPH over time and normalized to DMSO only (Vehicle) and GR lacking (blank) controls.

recombinant TrxR [2] = target: T2, recombinant TrxR (Rattus norvegicus, UniProt O89049); assay: Sec-independent SecTRAP activity (Juglone assay); settings: compound at the concentration that achieves 100% inhibition of TrxR in the DTNB assay
T2 sequence (O89049 1-499): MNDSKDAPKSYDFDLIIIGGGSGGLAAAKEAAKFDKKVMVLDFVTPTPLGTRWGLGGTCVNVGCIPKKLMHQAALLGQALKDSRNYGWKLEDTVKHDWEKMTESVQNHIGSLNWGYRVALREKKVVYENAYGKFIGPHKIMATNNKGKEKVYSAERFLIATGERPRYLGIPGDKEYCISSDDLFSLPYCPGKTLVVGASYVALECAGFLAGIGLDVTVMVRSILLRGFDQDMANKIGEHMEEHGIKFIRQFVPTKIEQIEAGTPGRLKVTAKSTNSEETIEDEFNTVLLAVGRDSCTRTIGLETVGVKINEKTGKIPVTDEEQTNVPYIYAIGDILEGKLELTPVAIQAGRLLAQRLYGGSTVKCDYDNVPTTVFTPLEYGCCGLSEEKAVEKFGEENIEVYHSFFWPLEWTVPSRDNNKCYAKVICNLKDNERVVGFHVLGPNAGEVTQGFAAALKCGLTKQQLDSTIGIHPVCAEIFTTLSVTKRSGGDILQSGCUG
Protocol: (§3) SecTRAP forming capabilities of compounds with TrxR was determined using the Juglone Assay. Compounds were incubated in the presence of recombinant TrxR and 250 μM NADPH for 15 minutes at concentrations fully inhibiting enzyme activity in the DTNB assay. 100 μM juglone was then added to each well and NADPH consumption was followed at OD340 to determine sustained reductive capacity at the N-terminus of TrxR (SecTRAP Activity). Activity was determined following the consumption of NADPH over time and normalized to DMSO only (Vehicle) and TrxR lacking (blank) controls.
(§4) Aliquots were used in a DTNB assay to determine inhibition of enzyme activity. […] Incubation samples were then added to a reaction buffer containing 250 μM NADPH and 100 μM juglone, whereupon NADPH consumption was followed at OD340 to determine sustained SecTRAP activity.
(§5) Higher % values for juglone activity (juglone reduction activity) in this assay are indicative of stronger prooxidant activity.

Trx in MDA-MB-231 cells = assay: Intracellular Trx levels by ELISA in MDA-MB-231 tumor cells; format: cell-based, human
Protocol: The human mammary carcinoma cell line MDA-MB-231 was obtained from the American Type Culture Collection (ATCC; Manassas, Va.) and cultured in Leibovitz's L-15 medium (Thermo Fisher Scientific, USA) supplemented with 10% (v/v) heat-inactivated fetal bovine serum (Thermo Fisher Scientific, USA), 10 mM HERBS (Sigma), 25 mM sodium bicarbonate (Sigma), 1× Glutamax (Sigma), 100 IU/mL penicillin and 100 μg/ml streptomycin (Sigma) in a 5% CO2 atmosphere at 37° C. Briefly, cells were seeded at 7500 cells/well in 96-well plates. After 24 h, the cells were treated either with different concentrations of test compounds or DMSO (0.5%; vehicle control) respectively and further incubated at 37° C. in a CO2 incubator. Culture supernatants were collected at different time points, like, immediately after cell plating (−24 h), 0 h (at the time of compound addition), and 1 h, 6 h, 12 h, 24 h, 48 h, 72 h and 96 h following compound addition. Subsequently, cells were lysed from corresponding wells with 0.1% Triton X-100 and the lysates were collected. Trx levels were measured in both the culture supernatants and cell lysates by ELISA using TXN (Human) ELISA Kit [Abnova; Cat no: KA0535] following manufacturer instruction. A standard curve was prepared using different concentrations of the Trx standard (provided in the kit) with the help of GraphPad Prism software (version 5.0; La Jolla, Calif., USA). Trx concentrations for the unknown samples were calculated from the standard curve. The data were expressed as the means of three replicates.

[3] = tested on: MDA-MB-468 (a breast cancer cell line); assay: MTT cell viability assay, MDA-MB-468; format: cell-based; settings: 72 hrs
Protocol: as §1, §2

[4] = tested on: U-87 MG (a glioblastoma cell line); assay: MTT cell viability assay, U-87 MG; format: cell-based; settings: 72 hrs
Protocol: as §1, §2

MDA-MB-231 cells = assay: Alamar-Blue cell viability assay; format: cell-based, human; settings: 72 hrs
Protocol: MDA-MB-231 cells were plated 2000 cells/well in 96-well black optical plates in the presence of 10% FBS media containing 25 nM selenite. The following day cells were treated with various concentrations of compounds (0.1% DMSO final) and incubated for 72 hrs. After the incubation Alamar Blue reagent was added to each well and incubated for additional 3 hrs. Fluorescence was read ex:530 nm/em:590 nm, and percent of viability was determined using DMSO vehicle and no cell (blank) controls.

[5] = tested on: MDA-MB-231 (a breast cancer cell line); assay: MTT cell viability assay, MDA-MB-231; format: cell-based, human; settings: 72 hrs
Protocol: as §1, §2

recombinant TrxR [6] = target: T2, recombinant TrxR
Protocol: as §3, §4, §5

| Structure (SMILES) | IC50 [1] [nM] | IC50 (GR from baker's yeast) [nM] | Juglone Act (% @ 100% DTNB inhibition) (recombinant TrxR [2]) [%] | time after which intracellular Trx is reduced compared with control cells (Trx in MDA-MB-231 cells; at 1 μM) [h] | intracellular levels of Trx compared with control cells (Trx in MDA-MB-231 cells; at 1 μM and 10 μM) | time after which intracellular Trx is reduced compared with control cells (Trx in MDA-MB-231 cells; at 10 μM) [h] | time after which intracellular Trx is reduced compared with control cells (Trx in MDA-MB-231 cells; at 1 μM and 10 μM) [h] | other results |
| --- | --- | --- | --- | --- | --- | --- | --- | --- |
| O=C1C=C[C@H]2[C@@H]3C(=O)N(Cc4ccccc4)C(=O)[C@@H]3[C@@H]1N2Cc1ccccc1 (relative stereo) [OT-2056, exo-4,11-Dibenzyl-4,11-diazatricyclo[5.3.1.0^2,6]undec-9-ene-3,5,8-trione] | 420 | > 30000 | 107.692 | 24 | reduced | 6 |  |  |
| CC(=O)OC[C@H]1O[C@@H]([S-])[C@H](OC(C)=O)[C@@H](OC(C)=O)[C@@H]1OC(C)=O.CCP(CC)CC.[Au+] [Auranofin, reference compound] |  | > 30000 |  |  |  |  |  | IC50 [3]: 310 nM; IC50 [4]: 1720 nM; IC50 (MDA-MB-231 cells): 1400 nM; IC50 [5]: 1660 nM; classification as SecTRAP forming agent (recombinant TrxR [6]): SecTRAP-forming agent |
| COc1ccc([N+](=O)[O-])c(S(=O)(=O)Cc2ccccc2)n1 [OT-1011, 2-Benzylsulfonyl-6-methoxy-3-nitropyridine] | 1210 | > 30000 | 83.67 |  | reduced |  | 6 to 12 |  |
| COc1ccc([N+](=O)[O-])c(S(=O)(=O)c2ccccn2)n1 [OT-1012, 6-Methoxy-3-nitro-2-(pyridin-2-ylsulfonyl)pyridine] |  | > 30000 | 89.8 |  |  |  |  | IC50 ([4]; Homo sapiens, U-87 MG): 8200 nM; intracellular levels of Trx compared with control cells (Trx in MDA-MB-231 cells; at all doses): reduced; time after which intracellular Trx is reduced compared with control cells (Trx in MDA-MB-231 cells; at all doses): 12 h |
| COC(=O)CCS(=O)(=O)c1nc(OC)ccc1[N+](=O)[O-] [OT-1113, methyl 3-((6-methoxy-3-nitropyridin-2-yl)sulfonyl)propanoate] | 1170 | > 30000 | 91.16 | 48 | reduced | 65 |  |  |
| CC[S+]([O-])c1nc(OC)ccc1[N+](=O)[O-] (stereo not drawn) [OT-1131, 2-(ethylsulfinyl)-6-methoxy-3-nitropyridine] |  |  |  |  | reduced |  | ≤ 6 |  |
